Measurements taken from patent US9233166B2, “Supramolecular functionalization of graphitic nanoparticles for drug delivery” (The Board of Trustees of the Leland Stanford Junior …, priority 2007, dated 2016).
Several values for one entry are separate records, joined by “and”; a condition that tells them apart may be missing. Equal values may be shown once. Read-outs that look alike come from different tables or passages of the source.

Legend:
[1] = mouse, in vivo, iv
Protocol: Blood circulation was measured by drawing ˜15 μl blood from the tail vein of Raji tumor bearing SCID mice post injection of free DOX or SWNT-DOX. The blood samples were dissolved in a lysis buffer 1 (1% SDS, 1% Triton X-100, 40 mM Tris Acetate, 10 mM EDTA, 10 mM DTT) with brief sonication. Concentration of SWNTs in the blood was measured by a Raman method. […] In brief, DOX was extracted by incubating blood samples in 1 ml of 0.75 M HCl in isopropanol (IPA) at −20° C. overnight. After centrifuge at 24,000 g for 15 minutes, the supernatant was taken for fluorescence measurement using a fluorolog-3 fluorometer. A standard calibration curve with obtained by measuring fluorescence of extraction solutions with known DOX concentrations. DOX loaded on SWNTs can be completely pulled from nanotubes by the extraction solution with ˜100% recover of fluorescence (DOX fluorescence is quenched once loaded on nanotubes).
Blood circulation data were plotted as the blood DOX or SWNT levels (unit: % ID/g) against time p.i. […]
We injected free DOX or SWNT-DOX to Raji tumor bearing SCID mice by intravenous (i.v.) injection via tail veins. Blood was drawn at different time points post injection (p.i.) with DOX concentrations measured by fluorescence spectra.

[2] = test system: MCF-7 cells; test: MTS cell viability assay, MCF-7 cells (SWNT-DOX formulations); assay type: cell-based; conditions: integrin αvβ3 negative
Protocol: MCF-7 breast cancer cells and U87MG human glioblastoma cancer cells (both from American Type Culture Collection, ATCC) were cultured under standard conditions. Cell viability after various treatments was measured by the MTS assay with CellTiter96 kit (Promega).

[3] = test system: Raji B-cell lymphoma tumors; test: In vivo treatment of Raji tumor bearing SCID mice
Protocol: Each SCID mouse was subcutaneously injected with 10 million Raji cells on its back. The treatment was initiated when the tumors reached sizes of ˜400 mm^3 (2-3 weeks after tumor inoculation). The tumor bearing mice were i.v. injected with different formulations of DOX including free DOX, SWNT-DOX and Doxil at 5 mg/kg of normalized DOX dose (or 10 mg/kg for SWNT-DOX) as well as related controls weekly. The tumor sizes were measured by a caliper three times a week and calculated as the volume=(tumor length)×(tumor width)^2/2. Relative tumor volumes were calculated as V/V0 (V0 was the tumor volume when the treatment was initiated). Mice were weighed with the relative body weights normalized to their initial weights.
Raji tumor bearing SCID mice were treated with different formulations of DOX at the weekly by i.v. injection. Plain SWNT and separated injections of plain SWNT plus free DOX were used as the controls. The tumor sizes were normalized to their initial size when the treatment was started (FIG. 26A-D).

[4] = Absorbance of free doxorubicin on heating; assay type: physicochemical; conditions: after 24 hours
Protocol: The diameter distributions of two types of SWNTs were obtained by AFM topographic height measurements of ˜100 PL-PEG functionalized nanotubes in each material, after depositing them on Si substrates from solutions (FIG. 12). Both Laser PL-SWNT-DOX and Hipco PL-SWNT-DOX (DOX loaded at pH=9) were incubated in PBS and kept at various temperatures (20° C., 40° C., 60° C., 80° C.). Released doxorubicin was removed at different time points and the retained doxorubicin was measured by UV-VIS-NIR to get temperature dependent releasing curves (FIGS. 13A and 13B). […] This was corrected in obtaining our release curves. The half-lives (t1/2) of doxorubicin on PEGylated SWNTs at various temperatures were obtained by fitting the releasing curves to exponential decays. We then used Arrhenius fits of 1/t1/2(T)=A×exp(−EB/kBT) where A is a constant for extracting binding energy EB of DOX on the PEGylated Hipco and laser-ablation nanotubes.

[5] = test system: MDA-MB-435 breast cancer cell line; test: MTS cell toxicity assay, MDA-MB-435; assay type: cell-based; conditions: Homo sapiens, MDA-MD-435 (breast), 72 h drug incubation
Protocol: (§1) HCT-116 colon cancer cell line, OVCAR-3 ovarian cancer cell line, U87MG glioma cell line and MDA-MB-435 breast cancer cell line were all obtained from American Type Culture Collect (ATCC) and cultured in the recommended conditions. […] After incubation for 72 hours, relative cell viability was measured by standard MTS assay using a CellTiter 96 kit (promega). For NGO-PEG toxicity test, cell medium containing NGO-PEG was changed to fresh medium at 72 h before cell viability test to avoid the dark color of NGO-PEG at high concentrations, which interferes the absorbance reading in MTS assay.

[6] = test system: U87MG glioma cell line; test: MTS cell toxicity assay, U87MG; assay type: cell-based; conditions: Homo sapiens, U-87 MG, 72 h drug incubation
Protocol: as §1

[7] = test system: HCT-116 colon cancer cell line; test: MTS cell toxicity assay, HCT-116; assay type: cell-based; conditions: Homo sapiens
Protocol: as §1

[8] = test system: OVCAR-3 ovarian cancer cell line; test: MTS cell toxicity assay, OVCAR-3; assay type: cell-based; conditions: Homo sapiens, 72 h drug incubation
Protocol: as §1

[9] = Water solubility of NGO-PEG-SN38; assay type: physicochemical; conditions: in terms of SN38
Description: The existence of aromatic conjugated domains on GO has been shown by NMR previously (Lerf, A.; He, H. Y.; Forster, M.; Klinowski, J., J. Phys. Chem. B, 1998, 102, 4477-4482).

[10] = test system: Raji B-cells; test: MTS cell viability assay, Raji cells (NGO-PEG-Rituxan/DOX); assay type: cell-based; conditions: 2 uM and 10 uM DOX, vs free DOX, NGO-PEG/DOX and unconjugated mixture
Protocol: Doxorubicin (DOX) loading onto NGO-PEG (and NGO-PEG-Rituxan) was done by simply mixing 0.5 mM of DOX with the NGO-PEG solution (˜0.2 mg/ml) at pH 8 overnight. Unbound excess DOX was removed by filtration through a 100 kDa filter and repeated rinse. The formed NGO-PEG/DOX complexes were re-suspended and stored at 4° C. Concentration of DOX loaded onto NGO-PEG was measured by the absorbance peak at 490 nm (characteristic of DOX, after subtracting the absorbance of NGO-PEG at that wavelength) with a molar extinction coefficient of 1.05×104 M·cm-1. Both Raji and CEM cells were incubated with free DOX, NGO-PEG/DOX, NGO-PEG/DOX+Rituxan (unconjugated) and NGO-PEG-Ri/DOX at DOX concentrations of 2 μM or 10 μM for 2 hours and washed by PBS twice before transferring into fresh cell medium. After another 48 h incubation, Cell viability was measured by the MTS assay with CellTiter96 kit (Promega).
For DOX loaded onto NGO-PEG-rituximab, we incubated the conjugates with Raji cells at 2 uM and 10 uM DOX concentrations.

[11] = test system: Raji B-cells; test: NIR photoluminescence imaging of cell binding; assay type: cell-based; conditions: 4° C., Raji B-cells vs CEM T-cells
Protocol: We covalently conjugated a B-cell specific antibody, Rituxan® rituximab (anti-CD20) to NGO-PEG (NGO-PEG-rituximab) to selectively recognize and bind to B cell lymphoma cells. We incubated B-cells and T-cells in solutions of NGO-PEG-rituximab conjugates at 4° C. to allow the conjugates to interact with the cell surface but block internalization via endocytosis. The cells were then washed and imaged by detecting NIR photoluminescence from 1100 to 2200 nm using an InGaAs detector under 658 nm excitation (laser spot size ˜1 μm). […] This confirmed selective NGO-PEG-Ab binding to B-cells over T cells. […] Nevertheless, the fluorescence quantum yield (QY) in the NIR-IR region appeared low.
Thiolated Rituxan® was conjugated to the amine groups on NGO-PEG via a sulfo-SMCC linker (Pierce Inc.). […] All NIR fluorescence images were taken using an inverted NIR fluorescence microscope in confocal mode. […] The collected light went through a 900 nm long pass filter (Omega) and a 1100 nm long pass filter (ThorLabs) to block reflected excitation and reduce background fluorescence from the sample holder. […] Background fluorescence from the sample holder (˜160 counts) was subtracted to give relevant statistics about the effectiveness of NGO-PEG binding.

[12] = test system: 4T1 tumors; test: In vivo treatment of 4T1 murine breast cancer model; parameters: species or system Balb/c mice; conditions: PTX 5 mg/kg every 6 days
Protocol: Female Balb/c mice with implanted 4T1 tumors were treated with the compositions shown in the graphs at the same PTX dose (5 mg/kg, every 6 days). […] No obvious side effects were seen. No mouse in the treatment group died, and no average drop in body weigh was seen (FIG. 19). The tumor growth curves were obtained with 5 mice in each group to get the average tumor volumes and standard deviations.
All animal experiments were performed under a protocol approved by Stanford's Administrative Panel on Laboratory Animal Care (APLAC). The 4T1 tumor models were generated by subcutaneous injection of 2×10^6 cells in 50 μl PBS into the right shoulder of female Balb/c mice. The mice were used for treatment when the tumor volume reached 50-100 mm^3 (˜6 days after tumor inoculation). […] The tumor sizes were measured by a caliper every the other day and calculated as the volume=(tumor length)×(tumor width)^2/2. Relative tumor volumes (FIG. 24) were calculated as V/V0 (V0 was the tumor volume when the treatment was initiated).
The mice were observed daily for clinical symptoms and the tumor volume was measured by a digital caliper every other day.

[13] = HCT-116 (colon), 72 h drug incubation, read-out: IC50 values

Compound: COc1cccc2c1C(=O)c1c(O)c3c(c(O)c1C2=O)C[C@@](O)(C(=O)CO)C[C@@H]3O[C@H]1C[C@H](N)[C@H](O)[C@H](C)O1 [free DOX, doxorubicin]
- DOX circulation half-life [1]: 12.6 min
- total area under curve (AUC0-∞) [1]: 5300 ng·h/mL
- toxicity (concentration dependent survival) [2]: higher toxicity than both PL-SWNT-DOX and PL-SWNT-RGD-DOX
- mice death ([3]; 5 mg/kg): 2 out of 10 and 2
- tumor growth (folds of initial size) ([3]; 5 mg/kg DOX weekly i.v., in two weeks): 2.90±0.19 folds
- body weight loss ([3]; 5 mg/kg, within two weeks): ~20%
- mouse death and body weight drop ([3]; 10 mg/kg): all the tested mice died within 2 weeks
- drop of absorbance on heating ([4]; 60° C.): ~30%
- drop of absorbance on heating ([4]; 80° C.): ~50%

Compound: CCc1c2c(nc3ccc(OC(=O)N4CCC(N5CCCCC5)CC4)cc13)-c1cc3c(c(=O)n1C2)COC(=O)[C@]3(O)CC [CPT-11, irinotecan]
- IC50 [5]: 6000 nM
- IC50 [6]: > 20000 nM
- IC50 ([7]; HCT-116, 72 h, read-out: 50% growth inhibition concentration (IC50)): ~10000 nM
- IC50 [7, 13]: 11000 nM
- IC50 [8]: 3000 nM

Compound: CCc1c2c(nc3ccc(O)cc13)-c1cc3c(c(=O)n1C2)COC(=O)[C@]3(O)CC [SN38, 7-ethyl-10-hydroxycamptothecin]
- IC50 [5]: 3 nM
- IC50 [6]: 67 nM
- IC50 [7, 13]: 15 nM
- IC50 [8]: 0.3 nM
- water solubility [9]: very insoluble in water

Compound: NGO-PEG-Rituxan/DOX
- DOX delivery and cell killing [10]: Much enhanced DOX delivery and cell killing

Compound: NGO-PEG-rituximab
- cell surface binding (NIR photoluminescence) [11]: selectively on positive Raji B-cells surface and not on negative CEM T-cells

Compound: CC(=O)O[C@H]1C(=O)[C@@]2(C)[C@H]([C@H](OC(=O)c3ccccc3)[C@]3(O)C[C@H](OC(=O)[C@H](O)[C@@H](NC(=O)c4ccccc4)c4ccccc4)C(C)=C1C3(C)C)[C@]1(OC(C)=O)CO[C@@H]1C[C@@H]2O [free PTX, paclitaxel]
- lung metastasis [12]: obvious lung metastasis was observed
